How the values were obtained:
[1] = tested on: CCl4-induced liver fibrosis in male BALB/c mice; assay: Carbon Tetrachloride (CCl4)-induced liver fibrosis model; format: in vivo
Experimental: This study is performed to evaluate the effects of calpain compounds disclosed herein on a Carbon Tetrachloride (CCl4)-induced liver fibrosis in male BALB/c mice. Liver fibrosis is induced in mice by the administration of CCl4 twice weekly for four weeks. CCl4 administered animals are treated with compounds disclosed herein in a therapeutic treatment mode on day 14 post initiation of CCl4 injection and continued until study termination. Study is terminated 96 hours following the last CCl4 administration, i.e., on day 32 post CCl4 administration. Compounds described herein show an improvement in fibrosis score and no effect on liver enzymes, liver weight or body weight compared to vehicle.
Carbon tetrachloride (CCl4) is purchased from Sigma (cat #319961). To induce liver fibrosis, mice are administered CCl4 (1:1, CCl4:mineral oil) via intraperitoneal (ip) injection at a dose volume of 1 ml/kg body weight. On every CCl4 administration day animals are weighed prior to administration of CCl4 and the dose volume is adjusted as per body weight of individual animal. Animals are administered CCl4: mineral oil twice weekly i.e. every Monday and Thursday for four weeks, 2 hours post morning treatment. The final CCl4 injection is received on day 28 post first CCl4 injection.
Animals are bled via sub-mandibular route on day-4 prior to study initiation, and on day 13, post CCl4 administration, a day before the therapeutic treatment began. Plasma is prepared and stored at −20° C. until it is analyzed. Upon study termination day 32 post CCl4 administration, animals are bled via cardiac puncture. Serum is prepared and stored at −20° C. until shipped to contract company for liver enzyme panel analysis. […]
The procedures described above were followed using Compound 405 as a test compound administered at 30 mg/kg BID or 100 mg/kg BID. Body weights were measured prior to every CCl4 administration. […] Average liver weight of 2.24+/−0.06 g was recorded in animals treated with vehicle compared to no CCl4 administered control mice 1.45+/−0.03 g (p<0.0001).

[2] = tested on: CDAHFD rat model of non-alcoholic steatohepatitis (NASH); assay: Rat choline-deficient, amino acid-defined high fat diet (CDAHFD) model of NASH; format: in vivo, Male Wistar rats; settings: for mRNA expression of CTGF: MC BID 42.89±32.82; for mRNA expression of IL-6: MC BID 54.89±47.23; for mRNA expression of Colla1: MC BID 106.6±59.97; for SMA (Acta2) protein expression: MC QD 5.82±0.67
Excerpt: A rat choline-deficient, amino acid-defined high fat diet (CDAHFD) model of non-alcoholic steatohepatitis (NASH) reproduces key features of the human disease. This model was used to examine the anti-fibrotic effects of Compound 405 (shown in Table 1a) in the CDAHFD rat model.
Male Wistar rats (Charles River Laboratories) were randomly assigned to receive the following treatments: Group 1 (n=8) served as a healthy control and were fed normal chow for 12 weeks; Group 2 (n=8) served as a disease control and was fed a CDAHFD and received once daily (QD) oral gavage treatment with vehicle Methylcellulose (MC) beginning at week 5 post CDAHFD, Group 3 (n=8) served as a disease control and was fed a CDAHFD and received twice daily (BID) oral gavage treatment with vehicle Methylcellulose (MC) beginning at week 5 post CDAHFD, Group 4 (n=8) was fed a CDAHFD and received QD oral gavage treatment with Compound 405 (200 mg/kg) beginning at week 5 post CDAHFD, Group 5 (n=8) was fed a CDAHFD and received BID oral gavage treatment with Compound 405 (100 mg/kg) beginning at week 5 post CDAHFD, Group 6 (n=8) was fed a CDAHFD and received QD oral gavage treatment with Compound 405 (60 mg/kg) beginning at week 5 post CDAHFD, Group 7 (n=8) was fed a CDAHFD and received BID oral gavage treatment with Compound 405 (30 mg/kg) beginning at week 5 post CDAHFD. At the end of the study (12 weeks), liver tissue and serum was collected for further analysis. A part of the liver was used for histological analysis and the spare liver from each individual animal was snap frozen on liquid nitrogen and stored at −80° C. Serum was collected to measure ALT,

[3] = BID oral 100 mg/kg and 30 mg/kg, serum
[4] = QD oral 200 mg/kg and 60 mg/kg, serum

Liver Weight (as a percent of total weight) ([2]; 30 mg/kg BID, p<0.05): 6.6 ± 0.3% | Liver Weight (as a percent of total weight) ([2]; 100 mg/kg BID, p<0.05): 6.6 ± 0.8% | spleen weight (as a percent of total weight) ([2]; BID oral 100 mg/kg and 30 mg/kg): did not affect | albumin levels [2, 3]: did not alter | Total bilirubin ([2]; BID study, serum): did not change significantly | albumin levels [2, 4]: did not change | Total bilirubin ([2]; QD study, serum): did not change significantly
SMILES: Cc1nc(-c2ccccc2F)c(C(=O)NC(Cc2ccccc2)C(=O)C(N)=O)o1 (centres unmarked) [Compound 405]
Fibrosis score (Picrosirius Red-stained liver sections, polarized light) ([1]; CCl4-treated mice, oral 30 mg/kg BID or 100 mg/kg BID from day 14, day 32): statistically significant reduction | length and thickness of the collagen fibers (PSR-stained liver sections) ([1]; CCl4-treated mice, oral BID from day 14): decrease | fibrosis ([1]; dosed therapeutically at 100 mg/kg, twice a day): significantly reduced | mRNA expression of CTGF ([2]; 30 mg/kg BID, p<0.01): 3.55±1.35 | mRNA expression of IL-6 ([2]; 30 mg/kg BID, p<0.01): 2.80±1.35 | mRNA expression of SMA ([2]; 30 mg/kg BID, MC BID 73.65±37.51, p<0.01): 11.46±2.02 | mRNA expression of Colla1 ([2]; 30 mg/kg BID, p<0.01): 13.37±2.53 | fibrosis as measured by CPA ([2]; 60 mg/kg QD): did not significantly decrease | fibrosis as measured by hydroxyproline ([2]; 60 mg/kg QD): did not significantly decrease | SMA (Acta2) protein expression ([2]; 60 mg/kg QD, p<0.01): 2.40±1.16% | collagen deposition ([2]; 100 mg/kg BID): reduced | SMA (Acta2) protein expression in livers ([2]; 100 mg/kg BID, MC BID 7.08±1.36%, p<0.01): 2.01±1.14% | mRNA expression of CTGF ([2]; 100 mg/kg BID, p<0.05): 3.84±2.24 | mRNA expression of IL-6 ([2]; 100 mg/kg BID, p<0.01): 15.81±9.01 | mRNA expression of Colla1 ([2]; 100 mg/kg BID, p<0.01): 35.76±33.84 | hydroxyproline ([2]; 100 mg/kg BID, MC BID 706.9±173.5 nmol/L, p<0.05): 458.2 ± 146 nmol/L | SMA (Acta2) protein expression ([2]; 200 mg/kg QD, p<0.01): 1.7±0.58% | collagen proportional area (CPA) ([2]; 200 mg/kg QD, MC QD 11.28±3.50%, liver at 12 weeks): 6.08±1.69% | hydroxyproline ([2]; 200 mg/kg QD, MC QD 731.3±165.9 nmol/L, p<0.05): 495.1 ± 113.9 nmol/L | pro-fibrotic or inflammatory gene expression (mRNA) ([2]; 200 mg/kg or 60 mg/kg QD): did not significantly decrease | body weight ([2]; BID oral 100 mg/kg and 30 mg/kg, weeks 5-12): did not affect | level of blood transaminases (U/L) including ALT, AST, and ALP vs MC BID [2, 3]: did not change | expression of Calpain1 ([2]; BID treatment): did not change | expression of Calpain 2 ([2]; BID treatment): did not change | liver fat content (histological analysis of steatosis) ([2]; BID treatment): did not change | body weight relative to vehicle (methyl cellulose) control ([2]; QD oral 200 mg/kg and 60 mg/kg, weeks 5-12): did not alter | level of blood transaminases (ALT, AST, ALP) vs MC QD [2, 4]: did not alter | liver fat content (histological analysis of steatosis) ([2]; QD treatment): did not change
